Results reported in US9108950B2, “1-pyrazolyl-3-(4-((2-anilinopyrimidin-4-yl)oxy)napththalen-1-yl) ureas as p38 MAP kinase inhibitors” (Respivert Ltd., priority 2011, dated 2015).

Test: Dynamic vapour sorption
Format: physicochemical
Settings: form B micronized
Experimental: Plots were obtained using a Surface Measurement Systems dynamic vapor sorption model DVS-1 using about 10 mg of the sample. The weight change was recorded with respect to atmospheric humidity at 25° C. and was determined using the following parameters: drying: 60 min under dry nitrogen; equilibrium: 60 min/step; data interval: 0.05% or 2.0 min. The relative humidity [RH %] measurement points were as follows:
The DVS isotherm plot for the micronized reference sample is illustrated in FIG. 4 and the DVS change in mass plot for the micronized reference sample is illustrated in FIG. 5. […] The product adsorbed up to 0.4% moisture depending on the atmospheric humidity.

Cc1ccc(-n2nc(C(C)(C)C)cc2NC(=O)Nc2ccc(Oc3ccnc(Nc4ccccc4)n3)c3ccccc23)cc1 [Compound (I), 1-(3-(tert-Butyl)-1-(p-tolyl)-1H-pyrazol-5-yl)-3-(4-((2-(phenylamino)pyrimidin-4-yl)oxy)naphthalen-1-yl)urea]
hygroscopic behavior (DVS): no hygroscopic behavior | moisture adsorbed (DVS) (depending on atmospheric humidity, 25° C.): up to 0.4%
